Measured values published in patent US20240293392A1, “INHIBITOR COMPOUNDS” (NeoPhore Limited, priority 2021, published 2024).
Structures can show the parent of a compound that is named as a salt. Where two headings read alike, the source gives them in different places.

Tests used:
[1] = biological target: T1, recombinant N-terminal PMS2 (residues 1-365) (Homo sapiens, UniProt P54278); experiment: Fluorescence Polarisation Assay for PMS2; type: binding; conditions: 10 nM N-terminal PMS2, 5 nM probe compound
T1 construct: recombinant N-terminal PMS2 (residues 1-365)
T1 sequence (P54278 1-365): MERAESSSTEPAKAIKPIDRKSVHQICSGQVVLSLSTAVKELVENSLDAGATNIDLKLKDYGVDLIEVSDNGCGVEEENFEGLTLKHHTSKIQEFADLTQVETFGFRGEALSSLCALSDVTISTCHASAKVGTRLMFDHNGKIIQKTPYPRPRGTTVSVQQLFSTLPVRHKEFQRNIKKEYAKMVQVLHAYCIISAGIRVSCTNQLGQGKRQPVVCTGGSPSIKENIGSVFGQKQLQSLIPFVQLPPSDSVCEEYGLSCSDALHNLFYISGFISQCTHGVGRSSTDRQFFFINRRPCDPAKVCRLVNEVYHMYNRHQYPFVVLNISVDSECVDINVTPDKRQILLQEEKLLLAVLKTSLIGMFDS
In short: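 Competition fluorescence polarisation with 10 nM N-terminal PMS2 and 5 nM fluorescent probe (final), read after 1 h at room temperature following 30 min compound pre-incubation. Data normalised to no-inhibitor and no-enzyme controls; single-point screening or serial dilutions for potency.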

[2] = biological target: T2, recombinant N-terminal MLH1 (residues 15-340) (Homo sapiens, UniProt P40692); experiment: Fluorescence Polarisation Assay for MLH1; type: binding; conditions: fluorescence polarisation probe displacement; 100 nM N-terminal MLH1, 5 nM probe compound
T2 construct: recombinant N-terminal MLH1 (residues 15-340)
T2 sequence (P40692 15-340): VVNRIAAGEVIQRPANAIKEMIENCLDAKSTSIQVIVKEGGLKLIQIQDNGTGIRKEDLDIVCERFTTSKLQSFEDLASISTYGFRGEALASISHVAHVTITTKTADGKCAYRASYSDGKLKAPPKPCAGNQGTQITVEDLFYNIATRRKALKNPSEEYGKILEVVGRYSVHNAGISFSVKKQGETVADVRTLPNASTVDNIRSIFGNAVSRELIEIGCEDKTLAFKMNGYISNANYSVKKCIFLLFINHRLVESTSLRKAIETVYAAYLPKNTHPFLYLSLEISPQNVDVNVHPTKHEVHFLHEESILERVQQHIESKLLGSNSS
In short: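 FP displacement assay: 100 nM MLH1 (residues 15-340) preincubated 30 min at room temperature with compound in 25 mM HEPES pH 7.5, 250 mM NaCl, 10 mM MgCl2, 0.01% Triton X-100, 5 mM DTT, then 5 nM rhodamine-labelled probe added and read immediately. Data normalised to no-inhibitor and no-enzyme controls.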

[3] = fluorescence polarisation probe displacement, read-out: PMS2 IC50

IC50 [1, 3] [nM] | IC50 [2] [nM] | Structure (SMILES) | IC50 ([1]; PMS2 IC50, fluorescence polarisation probe displacement) [nM]
> 10000 | 1000 to 10000 | O=C(c1c(O)cc(O)cc1OCC1CCOCC1)N1Cc2cccc(NC3CCOC3)c2C1 (centres unmarked) [Example 98, (2,4-Dihydroxy-6-((tetrahydro-2H-pyran-4-yl)methoxy)phenyl)(4-((tetrahydrofuran-3-yl)amino)isoindolin-2-yl)methanone] | 
> 10000 | < 1000 | CN(C)C(=O)N1CCC(Nc2cccc3c2CN(C(=O)c2c(O)cc(O)cc2OCc2ccccc2)CC3)C1 (centres unmarked) [Example 113, 3-((2-(2-(Benzyloxy)-4,6-dihydroxybenzoyl)-1,2,3,4-tetrahydroisoquinolin-8-yl)amino)-N,N-dimethylpyrrolidine-1-carboxamide] | 
> 10000 | 1000 to 10000 | Cc1ncncc1Nc1cccc2c1CN(C(=O)c1c(O)cc(O)cc1OCc1ccccc1)CC2 [Example 123, (2-(Benzyloxy)-4,6-dihydroxyphenyl)(8-((4-methylpyrimidin-5-yl)amino)-3,4-dihydroisoquinolin-2(1H)-yl)methanone] | 
1000 to 10000 | < 1000 | O=C(c1c(O)cc(O)cc1OCc1ccccc1)N1CCc2cccc(Nc3cncnc3)c2C1 [Example 71, (2-(Benzyloxy)-4,6-dihydroxyphenyl)(8-(pyrimidin-5-ylamino)-3,4-dihydroisoquinolin-2(1H)-yl)methanone] | 
> 10000 | < 1000 | COCCCC(=O)N1CC[C@H](Nc2cccc3c2CN(C(=O)c2c(O)cc(O)cc2OCc2ccccc2)CC3)C1 [Example 151, (S)-1-(3-((2-(2-(Benzyloxy)-4,6-dihydroxybenzoyl)-1,2,3,4-tetrahydroisoquinolin-8-yl)amino)pyrrolidin-1-yl)-4-methoxybutan-1-one] | 
< 1000 | < 1000 | NCCCCCN1CCN(Cc2ccc3c(c2)CN(C(=O)c2c(O)cc(O)cc2OCc2ccccc2)C3)CC1 [Example 104, (5-((4-(5-Aminopentyl)piperazin-1-yl)methyl)isoindolin-2-yl)(2-(benzyloxy)-4,6 dihydroxyphenyl)methanone hydrochloride] | 
> 10000 | < 1000 | O=C(c1c(O)cc(O)cc1OCc1ccccc1)N1CCc2cccc(NC3CCS(=O)(=O)C3)c2C1 (single isomer, unassigned) [Example 147a, (2-(Benzyloxy)-4,6-dihydroxyphenyl)(8-((1,1-dioxidotetrahydrothiophen-3-yl)amino)-3,4-dihydroisoquinolin-2(1H)-yl)methanone] | 
1000 to 10000 | < 1000 | O=C(c1c(O)cc(O)cc1OCc1ccccc1)N1Cc2cccc(N[C@@H]3CCOC3)c2C1 [Example 23, (R)-(2-(Benzyloxy)-4,6-dihydroxyphenyl)(4-((tetrahydrofuran-3-yl)amino)isoindolin-2-yl)methanone] | 
> 10000 | < 1000 | CC(=O)N1CC[C@H](Nc2cccc3c2CN(C(=O)c2c(O)cc(O)cc2OCc2ccccc2)CC3)C1 [Example 65, (S)-1-(3-((2-(2-(Benzyloxy)-4,6-dihydroxybenzoyl)-1,2,3,4-tetrahydroisoquinolin-8-yl)amino)pyrrolidin-1-yl)ethan-1-one] | 
> 10000 | 1000 to 10000 | COc1cc2c(c(NC3CCOC3)c1)CN(C(=O)c1c(O)cc(O)cc1OCc1ccccc1)CC2 (single isomer, unassigned) [Example 73, (2-(Benzyloxy)-4,6-dihydroxyphenyl)(6-methoxy-8-((tetrahydrofuran-3-yl)amino)-3,4-dihydroisoquinolin-2(1H)-yl)methanone] | 
< 1000 | < 1000 | O=C(c1c(O)cc(O)cc1OCc1ccccc1)N1Cc2cccc(N[C@H]3CCOC3)c2C1 [Example 22, (S)-(2-(Benzyloxy)-4,6-dihydroxyphenyl)(4-((tetrahydrofuran-3-yl)amino)isoindolin-2-yl)methanone] | 
> 10000 | 1000 to 10000 | O=C(c1c(O)cc(O)cc1OCc1ccccc1)N1Cc2ccccc2C(O)C1 (single isomer, unassigned) [Example 50, (2-Benzyloxy-4,6-dihydroxy-phenyl)-(4-hydroxy-3,4-dihydro-1H-isoquinolin-2-yl)methanone] | 
1000 to 10000 | < 1000 | CN(C)Cc1cc2c(c(N[C@@H]3CCOC3)c1)CN(C(=O)c1c(O)cc(O)cc1OCc1ccccc1)CC2 [Example 126, (R)-(2-(Benzyloxy)-4,6-dihydroxyphenyl)(6-((dimethylamino)methyl)-8-((tetrahydrofuran-3-yl)amino)-3,4-dihydroisoquinolin-2(1H)-yl)methanone] | 
1000 to 10000 | 1000 to 10000 | Nc1cccc2c1CN(C(=O)c1c(O)cc(O)cc1OCc1ccccc1)CC2 [Example 100, 8-Amino-3,4-dihydroisoquinolin-2(1H)-yl(2-(benzyloxy)-4,6-dihydroxyphenyl)methanone] | 
1000 to 10000 | < 1000 | O=C(c1c(O)cc(O)cc1OCc1ccccn1)N1CCc2cccc(N[C@H]3CCOC3)c2C1 [Example 55, (S)-(2,4-Dihydroxy-6-(pyridin-2-ylmethoxy)phenyl)(8-((tetrahydrofuran-3-yl)amino)-3,4-dihydroisoquinolin-2(1H)-yl)methanone] | 
1000 to 10000 | 1000 to 10000 | N#CC1CC(Oc2cccc3c2CN(C(=O)c2c(O)cc(O)cc2OCc2ccccc2)C3)C1 (centres unmarked) [Example 5, 3-((2-(2-(Benzyloxy)-4,6-dihydroxybenzoyl)isoindolin-4-yl)oxy)cyclobutane-1-carbonitrile] | 
> 10000 | < 1000 | CC(=O)N1CCC[C@@H](Nc2cccc3c2CN(C(=O)c2c(O)cc(O)cc2OCc2ccccc2)CC3)C1 [Example 68, (R)-1-(3-((2-(2-(benzyloxy)-4,6-dihydroxybenzoyl)-1,2,3,4-tetrahydroisoquinolin-8-yl)amino)piperidin-1-yl)ethan-1-one] | 
1000 to 10000 | 1000 to 10000 | N#CC1CN(c2cccc3c2CN(C(=O)c2c(O)cc(O)cc2OCc2ccccc2)C3)C1 [Example 92, 1-(2-(2-(Benzyloxy)-4,6-dihydroxybenzoyl)isoindolin-4-yl)azetidine-3-carbonitrile] | 
1000 to 10000 | < 1000 | CC1(NCc2cccc3c2CN(C(=O)c2c(O)cc(O)cc2OCc2ccccc2)C3)COC1 [Example 82, (2-(Benzyloxy)-4,6-dihydroxyphenyl)(4-(((3-methyloxetan-3-yl)amino)methyl)isoindolin-2-yl)methanone] | 
1000 to 10000 | < 1000 | CNc1cccc2c1CN(C(=O)c1c(O)cc(O)cc1OCc1ccccc1)CC2 [Example 43, (2-(Benzyloxy)-4,6-dihydroxyphenyl)(8-(methylamino)-3,4-dihydroisoquinolin-2(1H)-yl)methanone] | 
1000 to 10000 | < 1000 | O=C(c1c(O)cc(O)cc1OCc1ccccc1)N1CCc2cccc(N[C@H]3CCOC3)c2C1 [Example 2, (S)-(2-(Benzyloxy)-4,6-dihydroxyphenyl)(8-((tetrahydrofuran-3-yl)amino)-3,4-dihydro-isoquinolin-2(1H)-yl)methanone] | 

Structure (SMILES) | IC50 [1, 3] [nM] | IC50 [2] [nM] | IC50 ([1]; PMS2 IC50, fluorescence polarisation probe displacement) [nM]
CCOc1cc(O)cc(O)c1C(=O)N1Cc2cccc(NC3CCOC3)c2C1 (centres unmarked) [Example 17, (2-Ethoxy-4,6-dihydroxyphenyl)(4-((tetrahydrofuran-3-yl)amino)isoindolin-2-yl)methanone] |  | < 1000 | > 10000
